Data taken from patent US9365584B2, “Thieno [2,3-B] pyridinedione activators of AMPK and therapeutic uses thereof” (Poxel, priority 2009, dated 2016).

Test system: AMPK
Test: AMPK enzyme activity assay (Delfia technology, AMARA peptide substrate)
Type: biochemical
Details: compound at 30 μM vs AMP at 200 μM
Protocol: The following biological test allows the determination of the efficacy of compounds of formula (1) onto AMPK protein.
AMPK enzyme activities were assayed by using a Delfia technology. AMPK enzyme activities were carried out in microtiter plates in the presence of a synthetic peptide substrate (AMARAASAAALARRR, the “AMARA” peptide) and activators in serial dilutions. Reactions were initiated by the addition of AMPK. Enzyme activity was assayed by using an anti-phosphoserine antibody to measure the quantity of phosphate incorporated into the AMARAA.
No: Number of the molecule
Activity: Ratio between the % of control (basal activity) of compound of formula (1) at 30 μM and the % of control (basal activity) of AMP (natural substrate) at 200 μM.

SMILES	Activity: Ratio between the % of control (basal activity) of compound of formula (1) at 30 μM and the % of control (basal activity) of AMP (natural substrate) at 200 μM
Cc1ccc(-c2c(Cl)sc3c2C(=O)C(C)(c2cccc(F)c2)C(=O)N3)cc1 (centres unmarked) [No 45, 2-chloro-5-(3-fluorophenyl)-5-methyl-3-(p-tolyl)-7H-thieno[2,3-b]pyridine-4,6-dione]	A (0%<A<50%)
O=C1Nc2sc(Cl)c(-c3ccc(F)cc3O)c2C(=O)C1(F)c1ccccc1 (centres unmarked) [No 46, 2-chloro-5-fluoro-3-(4-fluoro-2-hydroxy-phenyl)-5-phenyl-7H-thieno[2,3-b]pyridine-4,6-dione]	B (50%≦B<75%)
Cc1ccccc1-c1c(Cl)sc2c1C(=O)C(C)(c1ccccc1F)C(=O)N2 (centres unmarked) [No 47, 2-chloro-5-(2-fluorophenyl)-5-methyl-3-(o-tolyl)-7H-thieno[2,3-b]pyridine-4,6-dione]	A (0%<A<50%)
COC1(c2ccccc2)C(=O)Nc2sc(Cl)c(-c3ccccc3)c2C1=O (centres unmarked) [No 48, 2-chloro-5-methoxy-3,5-diphenyl-7H-thieno[2,3-b]pyridine-4,6-dione]	A (0%<A<50%)
CC1(c2ccc(F)cc2)C(=O)Nc2sc(Cl)c(-c3ccc(F)cc3)c2C1=O (centres unmarked) [No 49, 2-chloro-3,5-bis(4-fluorophenyl)-5-methyl-7H-thieno[2,3-b]pyridine-4,6-dione]	A (0%<A<50%)
Cc1ccc(C2(C)C(=O)Nc3sc(Cl)c(-c4ccc(F)cc4)c3C2=O)cc1 (centres unmarked) [No 50, 2-chloro-3-(4-fluorophenyl)-5-methyl-5-(p-tolyl)-7H-thieno[2,3-b]pyridine-4,6-dione]	A (0%<A<50%)
CC1(c2cccc(F)c2)C(=O)Nc2sc(Cl)c(-c3ccc(F)cc3)c2C1=O (centres unmarked) [No 51, 2-chloro-5-(3-fluorophenyl)-3-(4-fluorophenyl)-5-methyl-7H-thieno[2,3-b]pyridine-4,6-dione]	A (0%<A<50%)
COc1ccccc1-c1c(Cl)sc2c1C(=O)C(C)(c1ccc(F)cc1)C(=O)N2 (centres unmarked) [No 52, 2-chloro-5-(4-fluorophenyl)-3-(2-methoxyphenyl)-5-methyl-7H-thieno[2,3-b]pyridine-4,6-dione]	A (0%<A<50%)
COc1ccc(C2(C)C(=O)Nc3sc(Cl)c(-c4ccc(F)cc4)c3C2=O)cc1 (centres unmarked) [No 53, 2-chloro-3-(4-fluorophenyl)-5-(4-methoxyphenyl)-5-methyl-7H-thieno[2,3-b]pyridine-4,6-dione]	A (0%<A<50%)
CC1(c2ccc(S(C)(=O)=O)cc2)C(=O)Nc2sc(Cl)c(-c3ccc(F)cc3)c2C1=O (centres unmarked) [No 54, 2-chloro-3-(4-fluorophenyl)-5-methyl-5-(4-methyl-sulfonylphenyl)-7H-thieno[2,3-b]pyridine-4,6-dione]	A (0%<A<50%)
CC1(c2ccccc2F)C(=O)Nc2sc(Cl)c(-c3ccc(F)cc3)c2C1=O (centres unmarked) [No 55, 2-chloro-5-(2-fluorophenyl)-3-(4-fluorophenyl)-5-methyl-7H-thieno[2,3-b]pyridine-4,6-dione]	B (50%≦B<75%)
COc1ccccc1-c1c(Cl)sc2c1C(=O)C(C)(c1cccc(C)c1)C(=O)N2 (centres unmarked) [No 56, 2-chloro-3-(2-methoxyphenyl)-5-methyl-5-(m-tolyl)-7H-thieno[2,3-b]pyridine-4,6-dione]	A (0%<A<50%)
Cc1ccc(-c2c(Cl)sc3c2C(=O)C(C)(c2ccc(F)cc2)C(=O)N3)cc1 (centres unmarked) [No 57, 2-chloro-5-(4-fluorophenyl)-5-methyl-3-(p-tolyl)-7H-thieno[2,3-b]pyridine-4,6-dione]	B (50%≦B<75%)
COc1cccc(C2(C)C(=O)Nc3sc(Cl)c(-c4ccccc4C)c3C2=O)c1 (centres unmarked) [No 58, 2-chloro-5-(3-methoxyphenyl)-5-methyl-3-(o-tolyl)-7H-thieno[2,3-b]pyridine-4,6-dione]	C (C≧75%)
Cc1cccc(C2(C)C(=O)Nc3sc(Cl)c(-c4ccccc4C)c3C2=O)c1 (centres unmarked) [No 59, 2-chloro-5-methyl-5-(m-tolyl)-3-(o-tolyl)-7H-thieno[2,3-b]pyridine-4,6-dione]	C (C≧75%)
Cc1ccc(C2(C)C(=O)Nc3sc(Cl)c(-c4cccc(F)c4)c3C2=O)cc1 (centres unmarked) [No 60, 2-chloro-3-(3-fluorophenyl)-5-methyl-5-(p-tolyl)-7H-thieno[2,3-b]pyridine-4,6-dione]	C (C≧75%)
COc1cccc(-c2c(Cl)sc3c2C(=O)C(C)(c2cccc(OC)c2)C(=O)N3)c1 (centres unmarked) [No 61, 2-chloro-3,5-bis(3-methoxyphenyl)-5-methyl-7H-thieno[2,3-b]pyridine-4,6-dione]	C (C≧75%)
COc1cccc(-c2c(Cl)sc3c2C(=O)C(C)(c2cccc(F)c2)C(=O)N3)c1 (centres unmarked) [No 62, 2-chloro-5-(3-fluorophenyl)-3-(3-methoxyphenyl)-5-methyl-7H-thieno[2,3-b]pyridine-4,6-dione]	C (C≧75%)
COc1cccc(C2(C)C(=O)Nc3sc(Cl)c(-c4ccc(F)cc4)c3C2=O)c1 (centres unmarked) [No 63, 2-chloro-3-(4-fluorophenyl)-5-(3-methoxyphenyl)-5-methyl-7H-thieno[2,3-b]pyridine-4,6-dione]	C (C≧75%)
CC1(c2cccc(S(C)(=O)=O)c2)C(=O)Nc2sc(Cl)c(-c3ccc(F)cc3)c2C1=O (centres unmarked) [No 64, 2-chloro-3-(4-fluorophenyl)-5-methyl-5-(3-methyl-sulfonylphenyl)-7H-thieno[2,3-b]pyridine-4,6-dione]	C (C≧75%)
COc1ccccc1-c1c(Cl)sc2c1C(=O)C(C)(c1ccc(C)cc1)C(=O)N2 (centres unmarked) [No 65, 2-chloro-3-(2-methoxyphenyl)-5-methyl-5-(p-tolyl)-7H-thieno[2,3-b]pyridine-4,6-dione]	C (C≧75%)
COc1ccccc1-c1c(Cl)sc2c1C(=O)C(C)(c1cccc(F)c1)C(=O)N2 (centres unmarked) [No 66, 2-chloro-5-(3-fluorophenyl)-3-(2-methoxyphenyl)-5-methyl-7H-thieno[2,3-b]pyridine-4,6-dione]	C (C≧75%)
COc1ccc(C2(C)C(=O)Nc3sc(Cl)c(-c4ccccc4OC)c3C2=O)cc1 (centres unmarked) [No 67, 2-chloro-3-(2-methoxyphenyl)-5-(4-methoxyphenyl)-5-methyl-7H-thieno[2,3-b]pyridine-4,6-dione]	C (C≧75%)
COc1cccc(C2(C)C(=O)Nc3sc(Cl)c(-c4ccccc4OC)c3C2=O)c1 (centres unmarked) [No 68, 2-chloro-3-(2-methoxyphenyl)-5-(3-methoxyphenyl)-5-methyl-7H-thieno[2,3-b]pyridine-4,6-dione]	C (C≧75%)
COc1ccccc1-c1c(Cl)sc2c1C(=O)C(C)(c1ccccc1F)C(=O)N2 (centres unmarked) [No 69, 2-chloro-5-(2-fluorophenyl)-3-(2-methoxyphenyl)-5-methyl-7H-thieno[2,3-b]pyridine-4,6-dione]	C (C≧75%)
Cc1sc2c(c1-c1ccccc1)C(=O)C(F)(c1ccccc1)C(=O)N2 (centres unmarked) [No 70, 5-fluoro-2-methyl-3,5-diphenyl-7H-thieno[2,3-b]pyridine-4,6-dione]	C (C≧75%)
O=C1Nc2sc(Cl)c(-c3cccnc3)c2C(=O)C1(F)c1ccccc1 (centres unmarked) [No 71, 2-chloro-5-fluoro-5-phenyl-3-(3-pyridyl)-7H-thieno[2,3-b]pyridine-4,6-dione]	B (50%≦B<75%)
O=C1Nc2sc(Cl)c(-c3ccc(O)cc3)c2C(=O)C1(F)c1ccccc1 (centres unmarked) [No 72, 2-chloro-5-fluoro-3-(4-hydroxyphenyl)-5-phenyl-7H-thieno[2,3-b]pyridine-4,6-dione]	C (C≧75%)

Same assay, conditions: compound at 30 μM vs AMP at 200 μM; listed as 2

SMILES	Activity: Ratio between the % of control (basal activity) of compound of formula (1) at 30 μM and the % of control (basal activity) of AMP (natural substrate) at 200 μM
COC1(c2ccccc2)C(=O)Nc2sc(Cl)c(-c3ccccc3)c2C1=O (centres unmarked) [No 48, 2-chloro-5-methoxy-3,5-diphenyl-7H-thieno[2,3-b]pyridine-4,6-dione]	B (50%≦B<75%)
